Source: patent US20070225213A1, “Nucleic acid carriers for delivery of therapeutic agents” (priority 2006, published 2007)

What was measured:
[1] = DNA addition method: NAC complexed vs unbound MTN in mouse urine (Example 17)
Method: To determine if NAC-MTN was excreted in urine as a complex, MTN fluorescence due to unbound NAC was assayed by an addition method. DNA was added to urine from both groups and subsequent change in fluorescence was measured.

[2] = In vivo MTN distribution in organs and recovery in urine after multiple i.v. dosing (Example 16, EX102205)
Method: (§5) Differential targeting and distribution of NAC-MTN or MTN in major organs of the mouse. NAC-MTN or MTN was administered intravenously to mice and detected in major organs after 24 hours. […] Total MTN in tissues was quantified by MTN fluorescence, normalized against total tissue weight, and reported as MTN mg/g tissue.
(§6) Mice n=2, were injected i.v. with repeated dose of either NAC-MTN or MTN alone. MTN administered was the same for each mouse.
(§7) A 0.4 ml volume of each NAC-MTN or MTN formulation was prepared for injection in HBSS or H2O (Hanks Buffered Saline, Sigma-Aldrich) as indicated below. For NAC-MTN injection, 45 ul 10 mg/ml MTN was diluted first in 325 ul of HBSS solution, then 180 ul of herring sperm DNA (HSDNA, 50 mg/ml stock neutralized, 0.2 um filtered) was added to give a turquoise blue color. […] In MTN injection, 45 ul 10 mg/ml MTN was diluted in 385 ul of H2O.
(§8) On day 1, white mice, n=2, 24 g each, were tail vein injected by a micro-catheter with 0.16 ml at 14:50 or 0.15 ml at 15:30, respectively of either NAC-MTN or MTN. A second injection was followed at 17:00 and 16:50 of 0.2 ml each of NAC-MTN or MTN. To quantify total MTN retained, mouse urine was collected after 1st and 2nd injection. Total MTN was assayed in mouse urine immediately after 1st injection and second injection by reading MTN fluorescence 620/680 s=50 of a 0.2 ml sample in a styrene well, bottom read. […] A third dose of 0.2 ml was given the next morning, 22 hours after 1st injection (day 2), of either NAC-MTN or MTN. […] Twenty four hours after first injection (day 2), mice were sacrificed and MTN assayed in major organs. The liver, kidneys, heart, and lung were homogenized at high speed 50,000 rpm, and treated with 1% SDS (sodium dodecyl sulfate). The homogenates were frozen twice and centrifuged for 30 minutes at 14000 rcf.

[3] = in vivo, iv
Method: as §5, §6, §7, §8

[4] = system: BHK21; assay: Toxicity of NAC-MTN vs CD-MTN and MTN, MTT (Example 9, EX042105); format: cell-based, hamster
Method: (§1) FIG. 4. […] The relative toxicity of NAC-MTN was compared with MTN and CD-MTN in four cell lines, MCF7(breast cancer), COS7green monkey kidney (SV40 transformed), 3T3 (mouse fibroblast), and BHK21(hamster kidney). Cells were treated with identical amounts of MTN formulated as either NAC-MTN, MTN only, or poly-beta-cyclodextrin-sulfylbutylether(CD-MTN). After an incubation period, cell viability was assayed with MTT assay. The differences in toxicity between NAC-MTN and MTN or NAC-MTN and CD-MTN are shown as % difference. Greater percentage difference correlates to more reduction in relative NAC-MTN toxicity.
(§2) MCF7, COS7, 3T3, and BHK21 cells were plated out in duplicate rows of equivalent cell density in 100ul final volume. Initial cell densities were 2000 cells/well.
(§3) Preparing NAC-MTN, CD-MTN, and MTN only. Combined 180 ul of 0.05 mg/ml MTN with […] 0.1 mg/ml herring sperm genomic DNA (HSGDNA, Promega), 1500 ul of 2× DMEM media containing 20% FBS to give 3.0 ml final volume and 12% final drug loading in the dsDNA. For MTN only, 180 ul of MTN was combined with 1320 ul H2O and 1500 ul 2× DMEM. […]
(§4) Aspirated media in plate and replaced with 50 ul of 0.5 mg/ml MTT in 1× media, incubated 3 hours, aspirated, air dried 5 min and dissolved in 100 ul of isopropyl, read OD at A570. […]

[5] = system: BHK21; assay: Effect of plating time on uptake of NAC-MTN and MTN, fluorescence (Example 11); format: cell-based, hamster
Method: The effect of plating time on the differential rates of uptake between NAC-MTN and MTN were assayed in cells treated <1 hour and 24 hours after plating.
On day 1, MCF7, COS7, 3T3, and BHK21 cells were plated out in a standard tissue culture plate. After incubation of 20 minutes samples were added to cells in rows A, C, E, and G. Cells were incubated at 37C in a standard atmosphere of 5%CO2.
On day 2, samples were added to rows D, F, and H and the fluorescence was obtained EX620/EM680 S=80. Samples were removed from A,C,E and G, replaced with media and fluorescence read again. On day 2 observed significant drug toxicity in cells of rows A,C, E, G. Sample addition was postponed in row B since MCF7 were not yet confluent.
On day 3, added samples to cells in row B containing confluent MCF7's, removed samples from rows D, F, and H replaced with media and read fluorescence.
Fluorescence data from cells taken after removal of media was used to quantitate total MTN retained in the cells. Fluorescence data were converted to mg/ml MTN using a standard curve prepared with free MTN or NAC-MTN.
The percentage difference in fluorescence between cells treated with NAC-MTN or MTN alone was used to compare relative drug uptake.
The MTN fluorescence ratios were obtained by dividing MTN fluorescence of cells incubated for 24 hours by fluorescence of cells incubated 30 minutes. […] The uptake in BHK21 was roughly equivalent for NAC-MTN regardless of plate adherence, however it should be noted that BHK21 adhere very rapidly to the plate.
Fluorescence data were converted to micromolar drug concentrations (uM MTN) using a standard curve for either nucleic acid bound or unbound drug, and drug uptake ratios were obtained by dividing the t(24 hour)/t(30 min.). The ratios of absolute drug concentration per well show more dramatic differences in uptake as shown below.

[6] = system: MCF7; assay: Toxicity of NAC-MTN vs CD-MTN and MTN, MTT (Example 9, EX042105); format: cell-based, human
Method: as §1, §2, §3, §4

[7] = system: 3T3; assay: as above; format: cell-based, mouse
Method: as §1, §2, §3, §4

[8] = three i.v. doses, 24 hours after first injection
[9] = 2 uM final MTN, MTT 48 hours after adding samples

SMILES: O=C1c2c(O)ccc(O)c2C(=O)c2c(NCCNCCO)ccc(NCCNCCO)c21 [MTN, mitoxantrone]
- % Change Fluor. on DNA addition to urine ([1]; Elapsed Time 2.5 hr): 83%
- % Change Fluor. on DNA addition to urine ([1]; Elapsed Time 5 hr): 66%
- % Change Fluor. on DNA addition to urine ([1]; Elapsed Time 8 hr): 71%
- MTN % dose recov. (urine) ([2]; Collect Time 0-2 hr): 2.9%
- MTN Recov. (urine) ([2]; Collect Time 0-2 hr, dose 0.18 mg (NAC-MTN) or 0.17 mg (MTN) at 0 hr): 0.0049 mg
- MTN % dose recov. (urine) ([2]; Collect Time 3-12 hr): 12%
- MTN Recov. (urine) ([2]; Collect Time 3-12 hr, dose 0.225 mg at 3 hr): 0.0279 mg
- MTN % dose recov. (urine) ([2]; Collect Time 12-24 hr): 13%
- MTN Recov. (urine) ([2]; Collect Time 12-24 hr, dose 0.225 mg at 22 hr): 0.0297 mg
- MTN in Heart [2, 8]: 0.033 mg/g tissue
- MTN in Kidney [2, 8]: 0.26 mg/g tissue
- MTN in Liver [2, 8]: 0.077 mg/g tissue
- MTN in Lung [2, 8]: 0.027 mg/g tissue
- MTN in Kidney ([2]; three i.v. doses, 24 hours after first injection, listed as MTN only): 0.261 mg/g tissue
- toxic effects in mouse [3]: Neither mouse showed any toxic effects
- % tox. relative to media only [4, 9]: 51.76%
- toxicity (est.) ([4]; after 20-24 hour incubation with MTN, 2 uM): ~50%
- MTN FLUOR Ratio of t(24)/t(<1) [5]: 0.73
- FLUOR (MTN fluorescence in cells) ([5]; cells treated 24 hour after plating): 10746
- FLUOR (MTN fluorescence in cells) ([5]; cells treated <1 hour after plating): 9557
- Ratio uM MTN of t(24)/t(<1) ([5]; from standard curve for bound or unbound drug): 1.2
- % tox. relative to media only [6, 9]: 48.39%
- toxic effect ([6]; after 24 hours, 2 uM MTN): no toxic effect
- % tox. relative to media only [7, 9]: 37.57%
- toxic effect ([7]; after 24 hours, 2 uM MTN): no toxic effect
